Reference: US20140243411A1 (priority 2011, published 2014)
Marks after values point to notes of the source that are not given here.

System: rats contaminated with ^241Am
Test: Radionuclide decorporation efficacy study in rats contaminated with 241Am (Example 10): excretion, tissue content, liver and skeleton burden
Assay type: in vivo, SD rats
Procedure: All animal studies were conducted according to a protocol approved by the University of North Carolina at Chapel Hill Institutional Animal Care and Use Committee (IACUC). Ten-week-old adult female SD rats weighing from 200 to 300 g were used in these studies (Charles River Labs, Raleigh, N.C.). Food and water were given ad libitum. The animal room was kept at a controlled temperature (23° C.) and light cycle (light exposure from 8 AM to 8 PM). For the duration of the study, the rats were housed in metabolic cages individually with daily urine and feces collection until euthanasia on Day 7.
To evaluate the efficacy of transdermal delivery of the C2E5 nonaqueous gel, a radionuclide decorporation efficacy study was conducted in rats contaminated with ^241Am. Adult female SD rats were anesthetized with 2-3% isoflurane. Dorsal skin between the cervical vertebrae and anterior thoracic vertebrae was clipped with caution before all animals were contaminated with [^241Am]-Americium nitrate solution (250 nCi, 0.1 mL) via an i.m. injection in anterior thigh muscle. The C2E5 nonaqueous gel was applied at dose of 1000 mg/kg using a cotton swap to a 6 cm^2 (2 cm×3 cm) area of the clipped dorsal region immediately after contamination. A jacket with plastic dorsal insert (VWR International) was placed on the rat to protect the gel application region. The mass of C2E5 gel applied was recorded for each animal to permit the actual dose determination. The animals were housed in metabolic cages individually after C2E5 treatment and were euthanized 7 days after contamination. Positive and negative controls included animals administered Ca-DTPA intravenously and animals without any treatment. The animals were observed once daily and their body weights recorded at pre-dose and prior to necropsy, Urine and feces were collected daily until euthanasia, when the liver, kidneys, both femurs and the muscle tissue from around the injection site were also collected. Cage washes were collected at the end of each experiment. As ˜35% of the decay of ^241Am is associated with photon emissions of 59.7 keV, ^241Am present in samples was quantified using a gamma counter (2470 Wizard 2, Perkin Elmer). The samples were counted for one minute using a 40-80 keV energy detection window and were background-corrected. Additionally, ^241Am activity was quantified in 2×0.1 mL aliquots of the dosing solution. For all samples, ^241Am content was expressed as a percentage of the initial dose.
where % ID represents the percent of injected dose. Where data for both femurs were available, an estimate of the total skeletal burden was made using the method of Volf with modification in which the counts in the contra-lateral femur were multiplied by 19 and added to the counts in the ipsi-lateral femur. The modification for the literature method was due to higher ^241Am content in ipsi-lateral femur as a result of i.m. injection in anterior thigh muscle.
Statistically significant differences among groups were determined using one-way ANOVA with Tukey's post hoc comparison. All measurements are expressed as mean±standard deviation (S.D.). The level of significance was set at p<0.05.

[1] = rats, seven days following a single dose, Ca-DTPA 14 mg/kg i.v., C2E5 1000 mg/kg transdermal
[2] = seven days after single dose, Ca-DTPA 14 mg/kg i.v., C2E5 1000 mg/kg transdermal gel

Structure (SMILES): O=C([O-])CN(CCN(CC(=O)[O-])CC(=O)[O-])CCN(CC(=O)[O-])CC(=O)[O-].[Ca+2].[Na+].[Na+].[Na+] [Ca-DTPA, reference compound]
- time of peak ^241Am excretion (14 mg/kg i.v.): ≤ 24 h
- Skeleton Burden (% of ID) (contra-lateral femur × 19 + ipsi-lateral femur, rats, seven days following a single dose, Ca-DTPA 14 mg/kg i.v. (n = 3), C2E5 1000 mg/kg transdermal): 11.6 ± 2.2^b % of ID
- Ipsi-lateral femur content of 241Am (rats, seven days following a single dose, Ca-DTPA 14 mg/kg i.v. (one animal excluded), C2E5 1000 mg/kg transdermal): 0.88 ± 0.18^c % of ID of ^241Am
- % of Reduction over control (liver burden) [1]: 38.2%
- % of Reduction over control (skeleton burden) [1]: 29.3%
- Contra-lateral femur content of 241Am [1]: 0.57 ± 0.09 % of ID of ^241Am
- Kidney content of 241Am [1]: 0.55 ± 0.03 % of ID of ^241Am
- Liver Burden (% of ID) [1]: 10.2 ± 2.7 % of ID
- Liver content of 241Am [1]: 10.2 ± 2.7 % of ID of ^241Am
- Muscle-contra content of 241Am [1]: 0.0054 ± 0.0028 % of ID of ^241Am per gram of muscle-contra
- Muscle-ipsi content of 241Am [1]: 40.0 ± 8.5 % of ID of ^241Am
- Pelt at injection site content of 241Am [1]: 0.43 ± 0.24 % of ID of ^241Am
- Total decorporation (% of ID of 241Am) [1]: 24.5 ± 3.5 % of ID of ^241Am
- reduction of liver burden of ^241Am versus control group (seven days after single dose, Ca-DTPA 14 mg/kg i.v., C2E5 1000 mg/kg transdermal): 38.2%
- % of Enhanced decorporation over control [2]: 255.3%
- Cumulative excretion of ^241Am In feces [2]: 6.1 ± 1.1 % of ID
- Cumulative excretion of ^241Am In urine [2]: 18.3 ±2.5 % of ID
- Cumulative excretion of ^241Am Total [2]: 24.5 ± 3.5 % of ID
